{"source": "patent US12036262B2", "about": "“Edible plant-derived nanoparticles for regulation of gut microbiota” (University of Louisville Research Foundation, Inc., priority 2017, dated 2024)", "key": {"[1]": {"test_system": "SpaC fragment with ath-miR167a binding site", "assay": "SpaC-pGFPuv GFP reporter in E. coli (FACS)", "format": "cell-based", "procedure": "Plasmid Construction and Mutagenesis. The SpaC fragment (339-800, LGG RS02140) spanning the sequences of the potential target (710-717) of GELN ath-miR167a was obtained by PCR with cDNA from LGG RNA. PCR was performed using a Bio-Rad thermal cycler T100. The 462-bp PCR product amplified by the primer pair SpaC-pGFPuv-F: 5′-[…]-3′ (SEQ ID NO: 1) and SpaC-pGFPuv-R: 5′-[…]-3′ (SEQ ID NO: 2) was ligated into the Sphl and Xbal restriction enzyme sites of a pGFPuv vector (Takara Bio/Clontech, Mountain View, California, United States of America) to obtain a green fluorescent protein (GFP) expression reporter. SpaC-pGFPuv fused with the SpaC gene fragment, which can be expressed in prokaryotic cells. To generate mutants of SpaC, the oligonucleotide primers SpaCMut-F, 5′-[…] […]\nFlow Cytometry. […] Data were acquired using a BD FACSCalibur flow cytometer (BD Biosciences, San Jose, California, United States of America) and analyzed using FlowJo software (Tree Star Inc., Ashland, Oregon, United States of America). To visualize bacteria stained with PKH26/67 and transformed with SpaC-pGFPuv plasmid, the PKH26/67-positive and GFP-positive bacteria were detected by flow cytometry using a BD FACSCalibur flow cytometer (BD Biosciences, San Jose, California, United States of America), and data were analyzed using FlowJo software (Tree Star Inc., Ashland, Oregon, United States of America)."}, "MC-38 cells": {"test_system": "MC-38 cells", "assay": "Migration assay, intracellular LGG", "format": "cell-based, C57BL/6 murine", "procedure": "Cells. C57BL/6 murine colon adenocarcinoma MC-38 cells (gender unknown; Kerafast, Inc., Boston, Massachusetts, United States of America) or human epithelial colorectal adenocarcinoma Caco-2 cells (American Type Culture Collection, ATCC®, Manassas, Virginia, United States of America) were grown in tissue culture plates with Dulbecco's modified Eagle's medium (DMEM) supplemented with 10% heat-inactivated fetal bovine serum (FBS), 100 U/mL penicillin, and 100 μg/mL streptomycin at 37° C. in a 5% CO2 atmosphere.\nMigration Assays. MC-38 or Caco-2 cells (ATCC) were seeded at 1×10^5 cells per well in a 12-well tissue culture plate with Dulbecco's modified Eagle's medium (DMEM) without antibiotics. The cells were inoculated with 1×10^7 bacteria per well for 90 minutes at 37° C. in a 5% CO2 atmosphere to allow bacterial adhesion and entry. The number of intracellular bacteria was quantified as described in Zhang & Wang, 1998."}, "LGG": {"test_system": "LGG", "assay": "Bacterial translocation to peripheral blood and liver", "format": "in vivo", "details": "DSS-treated SPF and germ-free mice, compared with LGG alone", "procedure": "Bacterial Translocation. Bacterial translocation from the murine gut to peripheral blood and liver was determined at the indicated times presented in the relevant figures after oral bacterial administration. Fifty microliters of anticoagulant blood were cultured on MRS agar for 48 h at 37° C. in an anaerobic chamber. Liver tissue samples were homogenized in 0.5% Triton X-100/PBS, and 100 μl of the homogenates were cultured on MRS agar plates. After 48 hours of incubation, CFUs were counted, and the results are expressed as number of bacteria detected/mL of blood or gram of liver."}}}
{"substance": "ath-miR167a: GELN miRNA, SEQ ID NO: 9 (UGAAGCUGCCAGCAUGAUCUA; expressed or natural sequence)", "values": [{"measurement": "GFP expression with mutation that disrupted the binding site", "setting": "[1]", "result": "entirely restored GFP expression"}, {"measurement": "LGG entry into MC38 cells", "setting": "MC-38 cells", "result": "could prevent the entry of LGG into gut epithelial cells"}, {"measurement": "LGG migration into bloodstream and liver", "setting": "LGG", "result": "significantly reduced LGG translocation into the peripheral blood"}]}
